Values belong to the molecule of their own block, whether it stands above or below them. Numbered stars: 1 amine (or outer) side, 2 acyl side, 3 side chain; on linkers, the order of the positions; unused ones are H or OH. Square brackets hold non-standard residues; d marks the D form. Peptide text beside a SMILES is read from it. X1 = O=C1[C@@H](N[*:1])Cc2ccccc2CN1CCC(=O)[*:2]; Dmt = Cc1cc(O)cc(C)c1C[C@H](N)C(=O)O
Key:
[1] = biological target: T1, Neuropeptide FF receptor 2 (Homo sapiens, UniProt Q9Y5X5); assay: Agonist activity at human NPFFR2 expressed in CHO cells assessed as inhibition of forskolin-induced cAMP accumulation incubated for 30 mins by LANCE cAMP assay; format: functional, cell-based
T1 sequence (Q9Y5X5 whole entry): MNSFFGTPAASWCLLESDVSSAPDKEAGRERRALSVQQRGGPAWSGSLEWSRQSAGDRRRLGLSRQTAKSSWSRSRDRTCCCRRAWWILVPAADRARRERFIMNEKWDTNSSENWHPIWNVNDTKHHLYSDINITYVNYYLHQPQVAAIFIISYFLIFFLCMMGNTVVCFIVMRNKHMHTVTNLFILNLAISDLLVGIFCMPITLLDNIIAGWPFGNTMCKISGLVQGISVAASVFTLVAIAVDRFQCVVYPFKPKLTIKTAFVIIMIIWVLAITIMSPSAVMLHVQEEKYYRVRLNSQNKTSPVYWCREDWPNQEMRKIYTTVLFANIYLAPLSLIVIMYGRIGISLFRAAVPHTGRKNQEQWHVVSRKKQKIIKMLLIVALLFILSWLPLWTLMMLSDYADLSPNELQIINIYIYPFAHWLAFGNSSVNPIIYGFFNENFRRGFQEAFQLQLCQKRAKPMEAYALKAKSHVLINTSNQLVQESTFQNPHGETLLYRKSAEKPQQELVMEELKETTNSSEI

[2] = biological target: T1, Neuropeptide FF receptor 2; assay: Agonist activity at NPFFR2 (unknown origin) expressed in HEK293 cells assessed as inhibition of forskolin-induced cAMP accumulation incubated for 30 mins relative to control; format: functional, cell-based; conditions: filed as agonist
[3] = biological target: T2, Kappa-type opioid receptor (Homo sapiens, UniProt P41145); assay: Agonist activity at human kappa opioid receptor expressed in HEK293 cells assessed as inhibition of forskolin-induced cAMP accumulation incubated for 15 mins followed by forskolin addition in presence of IBMX by Glo-sensor cAMP assay; format: functional, cell-based
T2 sequence (P41145 whole entry): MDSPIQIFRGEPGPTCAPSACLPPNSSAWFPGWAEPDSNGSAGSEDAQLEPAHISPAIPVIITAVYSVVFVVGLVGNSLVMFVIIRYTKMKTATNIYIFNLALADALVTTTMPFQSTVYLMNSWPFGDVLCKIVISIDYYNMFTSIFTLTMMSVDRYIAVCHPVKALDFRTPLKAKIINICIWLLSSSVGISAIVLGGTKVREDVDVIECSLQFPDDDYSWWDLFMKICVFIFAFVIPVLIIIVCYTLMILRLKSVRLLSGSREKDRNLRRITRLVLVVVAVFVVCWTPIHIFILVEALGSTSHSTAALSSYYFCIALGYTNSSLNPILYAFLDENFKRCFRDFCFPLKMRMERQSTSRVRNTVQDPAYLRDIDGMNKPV

Nociceptin receptor = Nociceptin receptor (Homo sapiens, UniProt P41146); assay: Agonist activity at human nociceptin receptor expressed in HEK293 cells assessed as inhibition of forskolin-induced cAMP accumulation incubated for 15 mins followed by forskolin addition in presence of IBMX by Glo-sensor cAMP assay; format: functional, cell-based
Sequence of Nociceptin receptor (P41146 whole entry): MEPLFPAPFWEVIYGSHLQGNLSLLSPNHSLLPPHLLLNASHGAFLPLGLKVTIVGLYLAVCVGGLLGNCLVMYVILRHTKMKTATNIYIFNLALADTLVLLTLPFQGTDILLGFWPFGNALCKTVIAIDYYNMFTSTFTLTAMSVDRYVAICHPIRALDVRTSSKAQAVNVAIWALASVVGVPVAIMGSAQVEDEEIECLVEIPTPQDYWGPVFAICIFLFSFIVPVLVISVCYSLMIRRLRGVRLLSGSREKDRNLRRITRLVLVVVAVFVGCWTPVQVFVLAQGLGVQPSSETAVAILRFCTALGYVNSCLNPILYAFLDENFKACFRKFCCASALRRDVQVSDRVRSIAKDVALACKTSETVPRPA

[4] = biological target: Mu-type opioid receptor (Homo sapiens) (UniProt P35372); assay: Agonist activity at human mu-opioid receptor expressed in HEK293 cells assessed as inhibition of forskolin-induced cAMP accumulation preincubated for 15 mins followed by forskolin addition in presence of IBMX by Glo-sensor cAMP assay relative to control; format: functional, cell-based; conditions: filed as agonist
Sequence of Mu-type opioid receptor (Homo sapiens) (P35372 whole entry): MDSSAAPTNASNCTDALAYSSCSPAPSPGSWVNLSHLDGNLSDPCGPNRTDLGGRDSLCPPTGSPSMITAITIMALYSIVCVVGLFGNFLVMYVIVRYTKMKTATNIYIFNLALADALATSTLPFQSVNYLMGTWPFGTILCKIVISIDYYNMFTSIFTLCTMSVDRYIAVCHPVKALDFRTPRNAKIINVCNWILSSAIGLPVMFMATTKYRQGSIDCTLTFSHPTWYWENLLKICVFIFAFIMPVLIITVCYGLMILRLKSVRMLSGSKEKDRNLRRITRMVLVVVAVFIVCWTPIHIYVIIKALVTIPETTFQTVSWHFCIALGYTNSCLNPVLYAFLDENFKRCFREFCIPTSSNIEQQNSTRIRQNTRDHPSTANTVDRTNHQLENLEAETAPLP

[5] = biological target: Delta-type opioid receptor (Homo sapiens) (UniProt P41143); assay: Agonist activity at human delta-opioid receptor expressed in HEK293 cells assessed as inhibition of forskolin-induced cAMP accumulation preincubated for 15 mins followed by forskolin addition in presence of IBMX by Glo-sensor cAMP assay relative to control; format: functional, cell-based; conditions: filed as agonist
Sequence of Delta-type opioid receptor (Homo sapiens) (P41143 whole entry): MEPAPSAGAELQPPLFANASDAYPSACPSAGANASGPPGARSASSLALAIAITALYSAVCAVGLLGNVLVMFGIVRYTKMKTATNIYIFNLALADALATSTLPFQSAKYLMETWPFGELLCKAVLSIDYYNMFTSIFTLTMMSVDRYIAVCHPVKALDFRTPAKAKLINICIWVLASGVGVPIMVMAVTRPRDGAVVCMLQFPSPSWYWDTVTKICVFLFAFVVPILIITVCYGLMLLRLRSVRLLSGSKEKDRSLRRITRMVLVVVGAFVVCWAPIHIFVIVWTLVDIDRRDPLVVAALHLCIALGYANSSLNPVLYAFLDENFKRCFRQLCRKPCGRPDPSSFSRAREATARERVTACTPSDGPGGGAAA

[6] = biological target: T2, Kappa-type opioid receptor; assay: Agonist activity at human kappa opioid receptor expressed in HEK293 cells assessed as inhibition of forskolin-induced cAMP accumulation incubated for 15 mins followed by forskolin addition in presence of IBMX by Glo-sensor cAMP assay relative to control; format: functional, cell-based; conditions: filed as agonist
[7] = biological target: T3, Neuropeptide FF receptor 1 (Homo sapiens, UniProt Q9GZQ6); assay: Agonist activity at human NPFFR1 expressed in CHO cells by [35S]-GTP S binding assay relative to control; format: cell-based; conditions: filed as agonist
T3 sequence (Q9GZQ6 whole entry): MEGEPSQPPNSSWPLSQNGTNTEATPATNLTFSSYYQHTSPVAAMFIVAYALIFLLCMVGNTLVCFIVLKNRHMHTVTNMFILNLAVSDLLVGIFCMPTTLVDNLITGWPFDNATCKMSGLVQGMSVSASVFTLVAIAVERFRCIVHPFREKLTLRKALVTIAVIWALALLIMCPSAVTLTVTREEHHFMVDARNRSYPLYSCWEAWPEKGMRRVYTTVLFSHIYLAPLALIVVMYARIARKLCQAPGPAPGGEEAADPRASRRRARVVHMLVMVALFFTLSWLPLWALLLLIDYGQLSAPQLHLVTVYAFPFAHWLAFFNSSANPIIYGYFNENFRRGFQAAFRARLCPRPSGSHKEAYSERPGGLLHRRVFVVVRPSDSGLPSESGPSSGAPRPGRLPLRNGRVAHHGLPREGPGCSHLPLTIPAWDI

[8] = biological target: T1, Neuropeptide FF receptor 2; assay: Agonist activity at human NPFFR2 expressed in CHO cells by [35S]-GTP S binding assay relative to control; format: cell-based; conditions: filed as agonist
[9] = biological target: T3, Neuropeptide FF receptor 1; assay: Agonist activity at NPFFR1 (unknown origin) expressed in mouse NIH3T3 cells by receptor selection and amplification technology assay relative to control; format: cell-based
[10] = biological target: T1, Neuropeptide FF receptor 2; assay: Agonist activity at NPFFR2 (unknown origin) expressed in mouse NIH3T3 cells by receptor selection and amplification technology assay relative to control; format: cell-based; conditions: filed as agonist
[11] = biological target: T3, Neuropeptide FF receptor 1; assay: Agonist activity at NPFFR1 (unknown origin) expressed in mouse NIH3T3 cells by receptor selection and amplification technology assay; format: cell-based
[12] = biological target: T3, Neuropeptide FF receptor 1; assay: Agonist activity at NPFFR1 (unknown origin) expressed in HEK293T cells harboring EP2 incubated for 15 mins by cAMP assay relative to control; format: functional, cell-based
[13] = biological target: T3, Neuropeptide FF receptor 1; assay: Agonist activity at NPFFR1 (unknown origin) expressed in HEK293T cells harboring EP2 incubated for 15 mins by cAMP assay; format: functional, cell-based
[14] = biological target: T1, Neuropeptide FF receptor 2; assay: Agonist activity at NPFFR2 (unknown origin) expressed in HEK293T cells harboring EP2 incubated for 15 mins by cAMP assay relative to control; format: functional, cell-based; conditions: filed as agonist
[15] = biological target: T1, Neuropeptide FF receptor 2; assay: Agonist activity at NPFFR2 (unknown origin) expressed in HEK293T cells harboring EP2 incubated for 15 mins by cAMP assay; format: functional, cell-based
[16] = biological target: T3, Neuropeptide FF receptor 1; assay: Binding affinity to human NPFFR1 by radioligand binding assay
[17] = biological target: T1, Neuropeptide FF receptor 2; assay: Binding affinity to human NPFFR2 by radioligand binding assay
[18] = biological target: Neuropeptide FF receptor 1 (Rattus norvegicus, UniProt Q9EP86); assay: Binding affinity to rat NPFFR1 by radioligand binding assay
Sequence of Neuropeptide FF receptor 1 (Rattus norvegicus, UniProt Q9EP86) (Q9EP86 whole entry): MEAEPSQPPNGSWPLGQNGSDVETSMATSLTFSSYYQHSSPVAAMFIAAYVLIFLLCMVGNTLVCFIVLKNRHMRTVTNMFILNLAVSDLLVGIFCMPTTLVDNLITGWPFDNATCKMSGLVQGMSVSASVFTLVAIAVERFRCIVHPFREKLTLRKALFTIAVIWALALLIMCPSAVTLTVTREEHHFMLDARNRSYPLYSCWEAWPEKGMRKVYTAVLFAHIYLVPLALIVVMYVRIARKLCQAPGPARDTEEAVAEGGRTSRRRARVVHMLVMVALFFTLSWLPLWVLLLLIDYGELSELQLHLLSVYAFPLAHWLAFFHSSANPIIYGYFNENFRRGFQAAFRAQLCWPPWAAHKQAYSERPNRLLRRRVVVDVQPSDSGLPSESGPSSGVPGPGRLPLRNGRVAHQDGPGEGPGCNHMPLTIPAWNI

[19] = biological target: Neuropeptide FF receptor 2 (Rattus norvegicus, UniProt Q9EQD2); assay: Binding affinity to rat NPFFR2 by radioligand binding assay
Sequence of Neuropeptide FF receptor 2 (Rattus norvegicus, UniProt Q9EQD2) (Q9EQD2 whole entry): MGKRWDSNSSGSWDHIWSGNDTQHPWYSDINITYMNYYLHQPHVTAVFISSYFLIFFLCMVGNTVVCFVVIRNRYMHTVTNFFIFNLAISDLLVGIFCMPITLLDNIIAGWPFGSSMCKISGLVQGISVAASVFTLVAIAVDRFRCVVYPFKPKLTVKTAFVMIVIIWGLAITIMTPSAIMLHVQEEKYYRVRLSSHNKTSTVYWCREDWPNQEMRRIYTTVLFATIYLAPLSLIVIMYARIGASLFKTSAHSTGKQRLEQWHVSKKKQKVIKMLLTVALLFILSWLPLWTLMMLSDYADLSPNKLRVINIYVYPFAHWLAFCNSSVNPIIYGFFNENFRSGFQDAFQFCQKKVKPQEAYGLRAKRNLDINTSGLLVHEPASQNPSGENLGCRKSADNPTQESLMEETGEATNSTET

[20] = biological target: T3, Neuropeptide FF receptor 1; assay: Displacement of [125I]YVP from human NPFFR1 expressed in CHO cells; format: cell-based
[21] = biological target: T1, Neuropeptide FF receptor 2; assay: Displacement of [125I]Tyr-NPFF from human NPFFR2 expressed in green monkey Cos-1 cells; format: cell-based
[22] = biological target: T3, Neuropeptide FF receptor 1; assay: Antagonist activity at human NPFFR1 expressed in CHO cells assessed as reversal of NPVF-induced inhibition of forskolin-stimulated cAMP accumulation incubated for 10 mins by liquid scintillation counting method; format: functional, cell-based
[23] = biological target: T1, Neuropeptide FF receptor 2; assay: Agonist activity at NPFFR2 (unknown origin) expressed in mouse NIH3T3 cells by receptor selection and amplification technology assay; format: cell-based
[24] = biological target: T3, Neuropeptide FF receptor 1; assay: Displacement of 125I-NPFF from human NPFFR1 incubated for 2 hrs by TopCount scintillation counting method
[25] = biological target: T1, Neuropeptide FF receptor 2; assay: Displacement of 125I-NPFF from human NPFFR2 incubated for 2 hrs by TopCount scintillation counting method
[26] = biological target: T3, Neuropeptide FF receptor 1; assay: Displacement of [3H]-FFRF-NH2 from human NPFFR1 expressed in CHO cell membrane by Topcount scintillation counting method; format: cell membranes
[27] = biological target: T1, Neuropeptide FF receptor 2; assay: Displacement of [3H]-FFRF-NH2 from human NPFFR2 expressed in CHO cell membrane by Topcount scintillation counting method; format: cell membranes
[28] = biological target: T4, Prolactin-releasing peptide receptor (Homo sapiens, UniProt P49683); assay: Displacement of [3H]-PrRP-20 from human PrRP receptor expressed in CHO cell membrane by TopCount scintillation counter method; format: cell membranes
T4 sequence (P49683 whole entry): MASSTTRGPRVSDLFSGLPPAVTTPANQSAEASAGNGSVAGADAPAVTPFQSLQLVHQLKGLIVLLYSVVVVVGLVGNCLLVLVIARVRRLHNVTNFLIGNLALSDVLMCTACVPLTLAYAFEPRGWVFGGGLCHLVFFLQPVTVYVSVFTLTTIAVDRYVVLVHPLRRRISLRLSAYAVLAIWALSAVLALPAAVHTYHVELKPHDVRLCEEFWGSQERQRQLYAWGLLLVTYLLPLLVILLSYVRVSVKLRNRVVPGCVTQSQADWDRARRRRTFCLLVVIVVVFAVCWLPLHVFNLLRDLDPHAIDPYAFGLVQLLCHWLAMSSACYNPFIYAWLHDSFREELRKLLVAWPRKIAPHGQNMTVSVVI

KiSS-1 receptor = KiSS-1 receptor (Homo sapiens, UniProt Q969F8); assay: Displacement of [125I]-Kp-10 from human KISS1R expressed in CHO cell membrane by TopCount scintillation counter method; format: cell membranes
Sequence of KiSS-1 receptor (Q969F8 whole entry): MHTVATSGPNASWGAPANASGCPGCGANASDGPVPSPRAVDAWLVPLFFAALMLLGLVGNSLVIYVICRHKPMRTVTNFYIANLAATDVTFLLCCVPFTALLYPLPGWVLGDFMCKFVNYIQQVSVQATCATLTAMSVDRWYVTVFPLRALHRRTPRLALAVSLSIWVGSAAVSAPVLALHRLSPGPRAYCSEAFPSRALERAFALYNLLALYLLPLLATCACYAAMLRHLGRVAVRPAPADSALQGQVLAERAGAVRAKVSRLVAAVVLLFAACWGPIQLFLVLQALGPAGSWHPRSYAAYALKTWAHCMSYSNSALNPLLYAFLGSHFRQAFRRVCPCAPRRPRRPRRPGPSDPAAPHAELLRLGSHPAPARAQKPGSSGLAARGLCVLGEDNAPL

[29] = biological target: T5, Pyroglutamylated RF-amide peptide receptor (Homo sapiens, UniProt Q96P65); assay: Displacement of [125I]-43RFa from human QRFP receptor expressed in CHO cell membrane by TopCount scintillation counter method; format: cell membranes
T5 sequence (Q96P65 whole entry): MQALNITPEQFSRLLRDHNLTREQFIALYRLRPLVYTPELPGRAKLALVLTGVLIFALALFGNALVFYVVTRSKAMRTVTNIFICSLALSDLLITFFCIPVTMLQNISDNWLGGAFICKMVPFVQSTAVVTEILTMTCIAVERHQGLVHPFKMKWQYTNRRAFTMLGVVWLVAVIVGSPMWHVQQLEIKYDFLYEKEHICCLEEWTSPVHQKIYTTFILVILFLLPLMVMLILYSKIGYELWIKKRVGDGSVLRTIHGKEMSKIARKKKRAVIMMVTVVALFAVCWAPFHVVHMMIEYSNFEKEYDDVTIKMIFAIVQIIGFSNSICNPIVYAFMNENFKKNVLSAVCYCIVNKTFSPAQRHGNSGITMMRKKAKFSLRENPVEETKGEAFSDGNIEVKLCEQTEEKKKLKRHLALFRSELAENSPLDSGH

[30] = biological target: T3, Neuropeptide FF receptor 1; assay: Displacement of [3H]-FFRF-NH2 from human FLAG-tagged NPFFR1 expressed in CHO cell membrane incubated for 30 mins by Topcount scintillation counting method
[31] = biological target: T1, Neuropeptide FF receptor 2; assay: Displacement of [3H]-FFRF-NH2 from human FLAG-tagged NPFFR2 expressed in CHO cell membrane incubated for 30 mins by Topcount scintillation counting method
[32] = biological target: T2, Kappa-type opioid receptor; assay: Agonist activity at kappa opioid receptor (unknown origin) expressed in HEK-293A cells assessed as inhibition of forskolin-induced cAMP accumulation preincubated for 30 mins followed by [3H] cAMP addition measured after 2 hrs by scintillation counting method; format: functional, cell-based, HEK293-A
[33] = biological target: T3, Neuropeptide FF receptor 1; assay: Agonist activity at NPFFR1 (unknown origin) expressed in HEK-293A cells assessed as inhibition of forskolin-induced cAMP accumulation preincubated for 30 mins followed by [3H] cAMP addition measured after 2 hrs by scintillation counting method; format: functional, cell-based, HEK293-A
[34] = biological target: T1, Neuropeptide FF receptor 2; assay: Agonist activity at NPFFR2 (unknown origin) expressed in HEK-293A cells assessed as inhibition of forskolin-induced cAMP accumulation preincubated for 30 mins followed by [3H] cAMP addition measured after 2 hrs by scintillation counting method; format: functional, cell-based, HEK293-A

Compound: C[C@@H](NC(=O)[C@@H](N)Cc1ccc(O)cc1)C(=O)NCC(=O)N[C@@H](Cc1ccccc1)C(=O)N[C@@H](CCC(N)=O)C(=O)N1CCC[C@H]1C(=O)N[C@@H](CCC(N)=O)C(=O)N[C@@H](CCCNC(=N)N)C(=O)N[C@@H](Cc1ccccc1)C(N)=O (H-Y[dA]GFQPQRF-NH2)
EC50 [1]: 178 nM
Emax [2]: 117%

Compound: Cc1cc(O)cc(C)c1C[C@H](N)C(=O)N[C@H](CCCNC(=N)N)C(=O)N[C@H]1Cc2ccccc2CN(CCC(=O)N[C@@H](CCCNC(=N)N)C(=O)N[C@@H](Cc2ccccc2)C(N)=O)C1=O (H-[Dmt][dR][X1]RF-NH2)
EC50 [3]: 108 nM
EC50 (Nociceptin receptor): > 10 µM
Emax [4]: 92%
Emax [5]: 89%
Emax [6]: 95%
Emax [7]: 88%
Emax [8]: 111%

Compound: N=C(N)N/N=C/c1ccc(-c2ccccc2C(F)(F)F)o1
Efficacy ([9]; filed as agonist): 57.8%
Efficacy [10]: 72.1%
EC50 [11]: 251 nM
Efficacy ([12]; filed as agonist): 93%
EC50 [13]: 1260 nM
Efficacy [14]: 114%
EC50 [15]: 3.16 µM

Compound: N=C(N)NCCC[C@H](NC(=O)[C@H](CCC(N)=O)NC(=O)[C@@H]1CCCN1C(=O)[C@H](CCC(N)=O)NC(=O)[C@H](Cc1ccccc1)NC(=O)[C@H](Cc1ccccc1)NC(=O)[C@@H]1CCCN1C(=O)[C@@H](N)Cc1ccc(O)cc1)C(=O)N[C@@H](Cc1ccccc1)C(N)=O (H-YPFFQPQRF-NH2)
EC50 [32]: 4.44 nM
EC50 [33]: 599 nM
EC50 [34]: 25.3 nM

The next lines start with the values.

Ki [16]: 13 nM
Ki [17]: 91 nM
Ki [18]: 7 nM
Ki [19]: 185 nM
Compound: Cc1cc(NC(=N)N)nc2ccccc12

Ki [20]: 58 nM
Ki [21]: 75 nM
EC50 [22]: 4.7 µM
Compound: NC(=O)[C@H](Cc1ccccc1)NC(=O)[C@H](CCCN=C(N)N)NC(=O)C12CC3CC(CC(C3)C1)C2

Efficacy [9]: 11%
EC50 [23]: 794 nM
Efficacy [12]: 23%
Ki [24]: 100 nM
Ki [25]: 126 nM
Compound: N=C(N)N/N=C/c1ccc(Br)c(Br)c1

Ki [26]: 1 nM
Ki [27]: 37 nM
Ki [28]: > 5 µM
Ki (KiSS-1 receptor): > 5 µM
Ki [29]: > 5 µM
Compound: NC1=NC=C(c2ccc(Cl)c(Cl)c2)CN1

Ki [30]: 172 nM
Ki [31]: 560 nM
Compound: O=C(N[C@@H](CCCN1CCCCC1)C(=O)NCCc1ccccc1)c1ccccc1-c1ccccc1

Source: ChEMBL document CHEMBL4765381, “Neuropeptide FF and Its Receptors: Therapeutic Applications and Ligand Development” (J Med Chem, 2020)
